Experiments:
Experiment in all cases: AUC of viability dose-response curve (% viability x log10 dose units); higher = less sensitive
Conditions in all cases: 48 h
[1] = test system: SEM cells
Method in brief: (§1)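 Leukemia cells adapted to each medium were seeded at 500 or 1000 cells/well in 1536-well plates and dosed with library compounds in DMSO at 11 threefold doses from 47 μM to 0.79 nM for 48 h at 37°C. CellTiter-Glo One luminescence was normalised per plate to DMSO and cell-free wells, then fitted with a four-parameter log-logistic model over log10 doses. Area under the curve was taken from this fit by the trapezoidal rule, with curves above full viability scaled and curves failing quality control removed.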

[2] = test system: P12-Ichikawa
Method in brief: as §1

[3] = test system: NOMO1
Method in brief: as §1

[4] = RPMI 5 mM glucose + 10% dialyzed FBS

SMILES	AUC of viability dose-response curve ([1]; HPLM + 10% dialyzed FBS)	AUC of viability dose-response curve ([1]; RPMI 5 mM glucose + 10% FBS)	AUC of viability dose-response curve [1, 4]	AUC of viability dose-response curve ([2]; HPLM + 10% dialyzed FBS)	AUC of viability dose-response curve ([2]; RPMI 5 mM glucose + 10% FBS)	AUC of viability dose-response curve [2, 4]	AUC of viability dose-response curve ([3]; HPLM + 10% dialyzed FBS)	AUC of viability dose-response curve ([3]; RPMI 5 mM glucose + 10% FBS)	AUC of viability dose-response curve [3, 4]
O=C(NCC[S+](=O)([O-])c1ccc(C(F)(F)F)cn1)c1ccc(Cl)cc1	448	450	446	470	455	452	457	461	463
CN(C)c1ccc(O)c2c1C[C@H]1C[C@H]3[C@H](N(C)C)C(O)=C(C(N)=O)C(=O)[C@@]3(O)C(O)=C1C2=O	448	467	475	468	452	420	475	474	409
CC\1=C/C=C\C=[N]1[Pt](N)(Cl)Cl	427	465	421	472	467	464	471	465	463
CC(N[C@H]1C[C@@H]1c1ccccc1)c1ccc2c(c1)OCCO2 (some centres not stated)	475	467	471	458	469	451	434	470	470
CC1(C)O[C@@H]2C[C@H]3[C@@H]4CCC5=CC(=O)C=C[C@]5(C)[C@@]4(F)[C@@H](O)C[C@]3(C)[C@]2(C(=O)CO)O1	255	270	280	315	288	288	411	418	456
CC/C(=C(/c1ccc(O)cc1)c1ccc(OCCNC)cc1)c1ccccc1	410	412	405	432	414	405	443	459	452
OC1=C(O)C2=C(\C=C/C(=O)O2)C=C1	423	430	436	470	466	467	454	469	465
CNC1CCC(N(Cc2cccc(-c3ccncc3)c2)C(=O)c2sc3ccccc3c2Cl)CC1 (configuration not stated)	310	267	279	319	326	302	330	326	381
C\C1=C\C(=O)OC2=C1C=CC(=C2)O	452	455	434	436	457	452	456	470	439
CC(=O)Oc1ccccc1C(=O)O	463	466	469	466	450	450	461	450	452
FC(F)(F)c1ccc(/C=C/c2nc(COc3ccc(CCCCn4ccnn4)cc3)co2)cc1	445	411	374	338	309	362	360	359	381
CCC1(C)CC(=O)NC1=O (configuration not stated)	465	462	460	458	459	467	437	421	450
C[C@](O)(COc1ccc(C#N)cc1)C(=O)Nc1ccc(C#N)c(C(F)(F)F)c1	388	396	400	445	413	382	422	435	433
OC[C@H]1O[C@@H](O[C@@H]2[C@@H](CO)O[C@](O)(CO)[C@H]2O)[C@H](O)[C@@H](O)[C@H]1O	458	460	457	456	447	436	448	453	444
CC[C@H](CC[C@@H](C)[C@H]1CC[C@H]2[C@@H]3C\C=C/4C[C@@H](O)CC[C@]4(C)[C@H]3CC[C@]12C)C(C)C	452	469	467	448	453	446	420	449	431
CN(C)CCOc1cc(-c2cn[nH]c2)ccc1NC(=O)C1COc2ccccc2O1 (configuration not stated)	439	453	453	449	455	459	460	442	447
CC1(C)Cc2c(-c3ccccc3)c(-c3ccc(Cl)cc3)c(CC(=O)O)n2C1	451	425	407	444	451	466	454	454	458

SMILES	AUC of viability dose-response curve ([1]; HPLM + 10% dialyzed FBS)	AUC of viability dose-response curve ([1]; RPMI 5 mM glucose + 10% FBS)	AUC of viability dose-response curve [1, 4]	AUC of viability dose-response curve ([2]; HPLM + 10% dialyzed FBS)	AUC of viability dose-response curve ([2]; RPMI 5 mM glucose + 10% FBS)	AUC of viability dose-response curve [2, 4]	AUC of viability dose-response curve ([3]; HPLM + 10% dialyzed FBS)	AUC of viability dose-response curve ([3]; RPMI 5 mM glucose + 10% FBS)	AUC of viability dose-response curve [3, 4]
Cc1ccc(NC(=O)c2ccc(CN3CCN(C)CC3)cc2)cc1Nc1nc(-c2cccnc2)cs1	238	255	223	417	405	406	417	468	440
O=NN(CCCl)C(=O)NCCCl	463	455	456	465	471	472	462	461	463
CC1(C)CCC[C@]2(C)[C@H]3CC(=O)O[C@]3(C)CC[C@@H]12	470	463	461	468	456	453	473	468	440
c1cncc(CN2CCC(n3ncc4c(N5CCOCC5)nc(-c5ccc6[nH]ccc6c5)nc43)CC2)c1	376	370	352	426	351	357	374	372	362
C/C=C(/C)C(=O)O[C@H]1C(C)=C2[C@H]([C@@H]1OC(=O)CCCCCCC)[C@@](C)(OC(C)=O)C[C@H](OC(=O)CCC)[C@@]1(O)[C@H]2OC(=O)[C@@]1(C)O	211	183	174	364	297	257	206	224	211
COc1ccc(-c2cc3nccn3c(Nc3ncccc3C(N)=O)n2)cc1OC	380	405	352	471	475	471	444	476	473
COC(=O)Nc1nc2cc(C(=O)c3cccs3)ccc2[nH]1	212	156	211	193	206	242	297	247	269
CC1=CC=CC=C1N2\C(=N/C3=C(C(=CC=C3)C)C2=O)C[N]4C=NC5=C4N=CN=C5N	344	308	344	439	412	419	369	427	406
[NH2][Pt]1([NH2])[O]CC(=O)[O]1	455	464	407	467	463	439	462	429	432
CC\1=C(C(\N=C(/N1)C2=CC(=NC=C2)Cl)C3=C(F)C=C(Cl)C=C3)/C(=O)NC4=C(F)C=C5[NH]N=CC5=C4 (configuration not stated)	408	405	423	440	439	441	459	443	457
CN1[C@@H]2CC(OC(=O)[C@@H](CO)c3ccccc3)C[C@H]1[C@H]1O[C@H]12 (some centres not stated)	445	443	442	474	469	435	452	417	451
Cn1c(=O)c2c(ncn2C)n(C)c1=O.O=C(O)CC(O)(CC(=O)O)C(=O)O	472	456	475	459	462	472	439	465	455
CC(=O)N(C)c1cccc(-c2ccnc3c(C(=O)c4cccs4)cnn23)c1	447	456	439	458	454	453	477	470	437
Cc1ccccc1C(C(=O)NC1CCCCC1)N(C(=O)Cn1ccnc1C)c1cccc(F)c1 (configuration not stated)	449	462	438	442	461	466	452	456	455
CC1CCC(C(=O)N(c2cc(C#CC(C)(C)C)sc2C(=O)O)C2CCC(O)CC2)CC1 (configuration not stated)	426	430	400	419	394	375	410	408	411
C/C=C1\NC(=O)[C@H]2CSSCC/C=C\[C@H](CC(=O)N[C@H](C(C)C)C(=O)N2)OC(=O)[C@H](C(C)C)NC1=O	166	170	162	175	174	176	182	181	189
